According to ChEMBL document CHEMBL5725854, “Inhibitors of protein methyltransferase DOT1L and methods of use thereof” (2018):

Target: Histone-lysine N-methyltransferase, H3 lysine-79 specific (Homo sapiens) (UniProt Q8TEK3)
Sequence (Q8TEK3 whole entry, looked up): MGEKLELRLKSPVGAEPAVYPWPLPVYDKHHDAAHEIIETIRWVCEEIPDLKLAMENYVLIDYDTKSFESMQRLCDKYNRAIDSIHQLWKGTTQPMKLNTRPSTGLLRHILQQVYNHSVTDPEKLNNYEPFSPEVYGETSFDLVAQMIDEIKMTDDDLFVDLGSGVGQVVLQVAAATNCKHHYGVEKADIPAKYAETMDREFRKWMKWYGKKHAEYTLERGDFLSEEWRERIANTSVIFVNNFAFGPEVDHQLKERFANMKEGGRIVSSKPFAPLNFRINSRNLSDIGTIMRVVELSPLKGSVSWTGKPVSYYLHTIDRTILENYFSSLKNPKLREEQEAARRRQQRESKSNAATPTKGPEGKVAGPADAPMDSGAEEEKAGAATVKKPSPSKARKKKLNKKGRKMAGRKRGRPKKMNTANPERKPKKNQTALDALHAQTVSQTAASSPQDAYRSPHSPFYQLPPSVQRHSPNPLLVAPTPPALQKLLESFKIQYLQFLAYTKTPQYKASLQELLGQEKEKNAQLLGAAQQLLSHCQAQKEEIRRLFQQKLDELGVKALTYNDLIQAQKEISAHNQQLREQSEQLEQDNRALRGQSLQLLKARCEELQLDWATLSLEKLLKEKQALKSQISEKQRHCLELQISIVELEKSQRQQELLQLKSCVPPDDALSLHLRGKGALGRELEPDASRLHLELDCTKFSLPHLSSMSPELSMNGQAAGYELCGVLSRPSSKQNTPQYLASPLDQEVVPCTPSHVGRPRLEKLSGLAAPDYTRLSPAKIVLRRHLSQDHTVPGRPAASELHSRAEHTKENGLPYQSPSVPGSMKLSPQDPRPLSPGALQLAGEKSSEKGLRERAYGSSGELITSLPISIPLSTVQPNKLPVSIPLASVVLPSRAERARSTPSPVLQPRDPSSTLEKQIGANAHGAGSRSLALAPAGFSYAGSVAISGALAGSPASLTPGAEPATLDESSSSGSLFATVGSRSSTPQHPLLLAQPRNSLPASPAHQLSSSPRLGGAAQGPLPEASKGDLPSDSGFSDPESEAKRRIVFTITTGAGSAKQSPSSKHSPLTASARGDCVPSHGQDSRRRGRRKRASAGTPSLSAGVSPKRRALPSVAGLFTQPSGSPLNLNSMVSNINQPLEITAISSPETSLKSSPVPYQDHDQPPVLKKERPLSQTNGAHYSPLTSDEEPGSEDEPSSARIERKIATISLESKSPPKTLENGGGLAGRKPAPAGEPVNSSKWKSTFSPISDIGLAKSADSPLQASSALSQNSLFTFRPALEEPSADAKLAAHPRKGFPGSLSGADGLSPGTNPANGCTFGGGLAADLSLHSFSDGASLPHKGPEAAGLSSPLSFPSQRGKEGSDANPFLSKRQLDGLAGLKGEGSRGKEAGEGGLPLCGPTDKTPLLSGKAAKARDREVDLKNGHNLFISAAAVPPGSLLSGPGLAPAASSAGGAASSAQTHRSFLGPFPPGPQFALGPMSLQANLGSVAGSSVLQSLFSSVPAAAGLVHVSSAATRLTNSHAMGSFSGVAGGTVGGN

## Nc1ncnc2c1ncn2[C@@H]1O[C@H](CSCC[C@H](N)OC=O)[C@@H](O)[C@H]1O
  k off: 0.1 s⁻¹
